Assay results: patent US10611797B2, “Peptide having anticancer activity, and pharmaceutical composition and dietary supplement composition for preventing and treating cancer, both of which contain same as active ingredient” (IUCF-HYU (INDUSTRY-UNIVERSITY COOPERATION FOUNDATION …, priority 2015, dated 2020)
Read-outs that look alike come from different tables or passages of the source.

Tests used:
[1] = test system: human mesenchymal stem cells (hMSC); test: MTT cell viability, human mesenchymal stem cells; details: increasing concentrations
[2] = test system: human embryonic stem cells (hESCs, H9); test: MTT cell viability, human embryonic stem cells co-cultured with MEFs; details: increasing concentrations; co-culture with MEFs
Description: MEF cells labeled with rhodamine were often used to distinguish them from hESC-derived cells.

[3] = test system: normal cell lines (MCF10A, BEAS2B, hMSCs, mouse primary T cells); test: Microscopic observation of growth inhibition and apoptosis, normal cell lines; details: 2 μM, 48 h
Experimental: (§1) Liver cancer cell lines (HepG2, Hep3B), a human embryonic kidney cell line (293T), breast cancer cell lines (MCF-7, MDA-MB-231), blood tumor cell lines (K562, HEL, HL60), glioblastoma cell lines (U251, U373MG, U87MG), a mammary epithelial cell line (MCF10A), a lung epithelial cell line (BEAS2B), human mesenchymal stem cells (hMSCs), and mouse primary T cells (resting and activated T cells) were inoculated into 96-well plates at a density of 3,000 cells/well, supplemented with 50 μl of culture solution, and cultured at 37° C. and 5% CO2 for 1 h. […] After completion of the culture, cells were observed under an inverted phase contrast microscope and their morphological changes were imaged.

[4] = test system: cancer cell lines (HepG2, Hep3B, 293T, MCF-7, MDA-MB-231, K562, HEL, HL60, U251, U373MG, U87MG); test: Microscopic observation of growth inhibition and apoptosis, cancer cell lines; assay type: cell-based, human; details: 2 μM, 48 h
Experimental: as §1

[5] = test system: BEAS2B and MCF10A normal epithelial cell lines; test: MTT cell viability / IC50, normal epithelial control cell lines
Experimental: (§2) Liver cancer cell lines (HepG2, Hep3B) were inoculated into 96-well plates at a density of 3000 cells/well, and then 50 μl of culture solution was added thereto. Cells were cultured at 37° C. and 5% CO2 for 1 h. […] Cells were cultured at 37° C. and 5% CO2 for 24, 48, 72, and 96 h. After completion of the culture, the remaining culture solution was removed from the well plates, the cultures were diluted with MTT solution (3-(4,5-dimethylthiazol-2-yl)-2,5-diphenyltetrazole bromide) to a final density of 500 μg/ml, and cells were cultured at 37° C. and 5% CO2 for 3 h. The remaining MTT solution was removed and 150 μl of dimethyl sulfoxide (DMSO) was added. The reaction was carried out at room temperature for 20 min. After completion of the reaction, absorbance was measured using a microplate reader.

MCF10A cell line = test: Electron microscopy of cell morphology, MCF10A; details: 2 μM, 24 and 48 h
Experimental: 1.5×10^6 cells of MDA-MB-231 cell line and 5×10^5 cells of MCF10A cell line were inoculated into 100 mm dishes. […] After culture for 24 and 48 h, cells were collected. The culture solution was centrifuged and surface adherent cells were collected by trypsin treatment. The collected cells were washed once with physiological saline. The cell sediment was directly treated twice with 2.5% aqueous glutaraldehyde solution (each for 10 min). Samples for electron microscopy were prepared and imaged in accordance with general methods.

MDA-MB-231 cell line = test: MTT assay of FITC-conjugated peptides in MDA-MB-231; assay type: cell-based, human; details: 0, 0.5, 1, 2, 3, 10 μM, 96 h
CP2c [6] = molecular target: T1, CP2c (Mus musculus, UniProt Q9ERA0); test: DNA immunoprecipitation (DIP) assay of CP2c-DNA binding; details: 0.2, 0.5, and 1 μg peptide; MEL nuclear extract; α-globin promoter probe
T1 construct: 5 μg of the nuclear extract and an [α-32p] dCTP-labeled DNA probe; endogenous in cells; host or cells: MEL (murine erythroid leukemia) cells, HMBA-differentiated, nuclear extract
T1 sequence (Q9ERA0 1-502): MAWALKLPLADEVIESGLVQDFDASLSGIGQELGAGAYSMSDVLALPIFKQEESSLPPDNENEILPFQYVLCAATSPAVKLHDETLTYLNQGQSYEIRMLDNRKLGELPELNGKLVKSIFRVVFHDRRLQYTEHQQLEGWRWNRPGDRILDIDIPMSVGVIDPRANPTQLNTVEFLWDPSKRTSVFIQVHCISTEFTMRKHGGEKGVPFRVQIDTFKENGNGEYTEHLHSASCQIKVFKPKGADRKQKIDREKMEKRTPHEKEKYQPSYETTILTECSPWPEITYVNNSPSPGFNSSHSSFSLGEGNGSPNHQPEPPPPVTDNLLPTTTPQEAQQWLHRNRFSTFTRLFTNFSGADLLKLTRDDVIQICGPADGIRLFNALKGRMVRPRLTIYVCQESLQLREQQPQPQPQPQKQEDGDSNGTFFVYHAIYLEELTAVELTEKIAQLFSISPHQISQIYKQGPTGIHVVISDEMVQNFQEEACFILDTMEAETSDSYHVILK
Experimental: To analyze whether the five peptides identified in Example 1.1 bind to CP2c in cells to affect the ability of CP2c to bind to DNA, DNA immunoprecipitation (DIP) assay was performed as disclosed in another preceding research conducted by the present inventors (Kim et al., A DNA immunoprecipitation assay used in quantitative detection of in vitro DNA-protein complex binding, Analytical Biochemistry. 2013; 441: 147-151).
In summary, the differentiation of a murine erythroid leukemia (MEL) cell line was induced by treatment with 5 mM hexamethylene bisacetamide (HMBA) and, on day 2 after differentiation, a cellular nuclear extract was separated. […]
Subsequently, 5 μg of the nuclear extract and an [α-32p] dCTP-labeled DNA probe (a sequence corresponding to the common CP2c binding site present in mouse α-globin promoter and between −156 and −124 in the start codon of the α-globin gene, see the paper of Kim et al. for details of the sequence) were allowed to react with a binding buffer (4% glycerol, 10 mM Tris-HCl, 1 mM DTT, 1 mM EDTA, and 0.1% NP-40) for 15 min, and gradually increasing amounts (0.2, 0.5, and 1 μg) of the identified CP2c binding peptides (Peptide 5, Peptide 8, Peptide 13, Peptide 21, and Peptide 31) were added thereto. […] The CP2c protein was removed from the DNA probe and the remaining amount of the DNA probe was measured using a scintillation counter. […]

CP2c [7] = test: Direct ELISA of GST-fusion mutant CP2c proteins binding to peptide; details: 19 Ala mutants of CP2c 306-396 region; detected with biotin-tagged Peptide 5-2CB
Description: To support this assumption, a CP2c protein region with which Peptide 5-2C interacts and amino acids in the region directly binding to Peptide 5-2C need to be identified. Thus, an attempt was made to obtain mutant CP2c proteins in which polar amino acids present in the CP2c region binding with Peptide 5 shown in FIG. 1 were substituted with Ala and analyze the binding of the mutant CP2c proteins with Peptide 5-2C by enzyme-linked immunosorbent assay (ELISA). To facilitate this analysis, Peptide 5-2CB was synthesized in which biotin tag is bonded to the C-terminal Pro residue of Peptide 5-2C. To confirm whether Peptide 5-2CB induces cancer cell-specific growth interruption and apoptosis, like Peptide 5-2C, MTT assay was conducted on two different batches of Peptide 5-2CB in MDA-MB-231 cell line and MCF7 cell line by the same method as in Example 5.1. IC50 values were also calculated from the results of MTT assay. To obtain 19 mutant CP2c proteins in which polar amino acids present in the CP2c region binding with Peptide 5-2C were substituted with Ala, oligonucleotides having sequences encoding the corresponding mutant amino acids were synthesized and site-directed mutagenesis was carried out. The base sequences encoding the mutant CP2c genes were cloned into the pGEX4 vector and mutant GST-fusion CP2c proteins were purified using beads bound with antibody against GST-tag. […]

[8] = test system: BEAS2B and MCF10A normal epithelial cell lines
Experimental: as §2

[9] = test system: breast cancer cell lines (MCF7, MDA-MB-231); test: MTT cell viability, breast cancer cell lines; assay type: cell-based, human; details: increasing concentrations
Experimental: as §2

[10] = test system: human blood cancer cell lines (U937, Jurkat, HL60, HEL); test: MTT cell viability with Peptide 5-2D, human blood cancer cell lines; assay type: cell-based; details: increasing concentrations
Experimental: as §2

[11] = test system: 293T and HepG2 cell lines; test: MTT cell viability with Peptide 5-2D, 293T and HepG2; assay type: cell-based, human; details: increasing concentrations
Experimental: as §2

[12] = test system: glioblastoma cell lines (U343, U87MG); test: MTT cell viability with Peptide 5-2D, glioblastoma cell lines; assay type: cell-based, human; details: increasing concentrations
Experimental: as §2

[13] = test system: colon cancer cell lines (HCT116, HT29); test: MTT cell viability with Peptide 5-2D, colon cancer cell lines; assay type: cell-based, human; details: increasing concentrations
Experimental: as §2

## CCOc1ccccc1C1CC(=O)Nc2cc3c(cc21)OCO3 (centres unmarked) [FQI1, Factor Quinolinone Inhibitor 1]
[1]
  cytotoxicity (MTT) in hMSC: concentration-dependent cytotoxicity
[2]
  cytotoxicity (MTT) in hESCs: concentration-dependent cytotoxicity
[3]
  effect on normal cell lines (microscopy): inhibited the growth of the normal cell lines
[4]
  growth inhibition and apoptosis induction of cancer cell lines (microscopy): inhibited the growth of the normal cell lines as well as the cancer cell lines in a concentration-dependent manner and induced apoptosis
[5]; 48 h, MTT
  growth inhibition and apoptosis induction of normal control cell lines (IC50 calculation): inhibited cell growth and induced apoptosis
[5]; increasing concentrations up to 10 μM
  cytotoxicity (MTT) in MCF10A and BEAS2B: concentration-dependent cytotoxicity
MCF10A cell line
  intracellular structural abnormalities in MCF10A (electron microscopy): considerable nuclear disruption was observed at 48 h

## FITC-iRGD: FITC fluorescently labeled iRGD peptide (CRGDKGPDC)
MDA-MB-231 cell line
  cell growth (MTT) in MDA-MB-231: only the FITC-conjugated Peptide 5-2C inhibited cell growth

## NYPQRP [Peptide 5-2]
CP2c [6]
  inhibition of CP2c-DNA binding (DIP assay): specifically inhibited the binding between CP2c and DNA
CP2c [7]
  CP2c amino acids important for peptide binding: E332, R339, R341 and R347 amino acid are important for binding to Peptide 5-2

## dNP2 peptide sequence (KIKKVKKKGRKGSKIKKVKKKGRKGG) linked to the N-terminal Asn residue of Peptide 5-2 [Peptide 5-2D]
[8]
  growth inhibition and apoptosis induction of normal control cell lines (IC50 calculation): did not substantially affect the growth inhibition of the normal control cell lines and the induction of apoptosis
  relative viability (MTT), MCF10A and BEAS2B, compared with Peptide 5-2C: did not affect the growth of the mammary epithelial cell line and the lung epithelial cell line and apoptosis, similarly to Peptide 5-2C
[9]
  relative viability (MTT), breast cancer cell lines, compared with Peptide 5-2C: inhibited the growth of the breast cancer cell lines and efficiently induced apoptosis, similarly to Peptide 5-2C
[10]
  relative viability (MTT), U937, Jurkat, HL60, HEL, compared with Peptide 5-2C: inhibited the growth of the human embryonic kidney cancer cell line and the liver cancer cell line and efficiently induced apoptosis, similarly to Peptide 5-2C
[11]
  relative viability (MTT), 293T and HepG2, compared with Peptide 5-2C: inhibited the growth of the human embryonic kidney cancer cell line and liver cancer cell line and efficiently induced apoptosis, similarly to Peptide 5-2C
[12]
  relative viability (MTT), U343 and U87MG, compared with Peptide 5-2C: inhibited the growth of the glioblastoma cell lines and efficiently induced apoptosis, similarly to Peptide 5-2C
[13]
  relative viability (MTT), HCT116 and HT29, compared with Peptide 5-2C: inhibited the growth of the glioblastoma cell lines and efficiently induced apoptosis, similarly to Peptide 5-2C
